Molecular target: T1, MMP-13 (Homo sapiens, UniProt P45452)
T1 construct: 10 μL of a 50 nM stock solution of catalytic domain of MMP-13 enzyme; purchased Invitek (Berlin) 30100812
Assay: Assay for determining MMP-13 inhibition (fluorescent substrate)
Type: biochemical
Conditions: catalytic domain of MMP-13
Description: The inhibiting activity towards different metalloproteases of the heterocyclic metalloprotease inhibiting compounds of the present invention may be measured using any suitable assay known in the art. A standard in vitro assay for measuring the metalloprotease inhibiting activity is described in Examples 1700 to 1704.
The typical assay for MMP-13 activity is carried out in assay buffer comprised of 50 mM Tris, pH 7.5, 150 mM NaCl, 5 mM CaCl2 and 0.05% Brij-35. Different concentrations of tested compounds are prepared in assay buffer in 50 μL aliquots. 10 μL of a 50 nM stock solution of catalytic domain of MMP-13 enzyme (produced by Alantos or commercially available from Invitek (Berlin), Cat.# 30100812) is added to the compound solution. The mixture of enzyme and compound in assay buffer is thoroughly mixed and incubated for 10 min at room temperature. Upon the completion of incubation, the assay is started by addition of 40 μL of a 12.5 μM stock solution of MMP-13 fluorescent substrate (Calbiochem, Cat. No. 444235). The time-dependent increase in fluorescence is measured at the 320 nm excitation and 390 nm emission by automatic plate multireader. The IC50 values are calculated from the initial reaction rates.

[1] = compounds stated as lower than 100 nM

`Cc1c(C(=O)O)ccc2c1CC[C@@H]2NC(=O)c1cc(C(=O)NCc2ccc3c(c2)NC(=S)CO3)nc2ccnn12` [1/1] was tested, and the IC50 [1] was less than 100 nM.

In the case of `Cc1c(C(=O)O)ccc2c1CC[C@@H]2NC(=O)c1cc(C(=O)NCc2ccc3c(c2)-n2c(noc2=O)CO3)nc2ccnn12` [Example 1/2], the IC50 (range class, units printed within the value (nM to μM)) is reported as 100 to 20000 nM.

`Cc1c(C(=O)O)ccc2c1CC[C@@H]2NC(=O)c1cc(C(=O)NCc2ccc3c(c2)-n2cnnc2CO3)nc2ccnn12` [Example 1] gave an IC50 [1] of less than 100 nM.

Source: patent US7691851B2, “Metalloprotease inhibitors containing a heterocyclic moiety” (Alantos Pharmaceuticals Holding, Inc., priority 2007, dated 2010)
